Reference: US9801885B2, “Transvaginal phosphodiesterase inhibitors for infertility treatment” (PROKREA BCN, S.L., priority 2011, dated 2017)
Entries after “also recorded” stand apart in the source; their conditions may differ.

Assays:
[1] = tested on: sperm of a semen sample from a patient with asthenozoospermia; experiment: In vitro assay of the effect of phosphodiesterase inhibitors on sperm motility; type: cell-based, human; parameters: key to Increase in sperm speed: the symbol ++ denotes a very significant increase in sperm motility; conditions: vs untreated sample; for Increase in sperm type A + B: mixed 1:1 with semen; for Increase in sperm speed: subjective rating, all sperm types
Experimental: In each case the corresponding phosphodiesterase inhibitor (rolipram, milrinone, ibudilast and pentoxifylline) was dissolved in a commercial medium suitable for performing sperm preparations (SpermRinse®) to the desired concentration. […] A semen sample was taken from a patient with asthenozoospermia and it was kept at room temperature for 5 minutes after liquefaction, it was mixed with SpermRinse® solution without phosphodiesterase inhibitor in a volumetric ratio of 1:1. Another part of the semen was mixed also after liquefaction with the SpermRinse® solution containing the phosphodiesterase inhibitor also in a proportion of 1:1 by volume. For each observation, 3 microdrops of the preparation were used, they were placed under an optical microscope with 20× objective and Makler camera. A sperm count was performed, the number of type A sperm (advancing rapidly, with rectilinear trajectory) and type B sperm (advancing rapidly, with curvilinear trajectory) of each sample being counted. This was performed for the untreated sample and for the samples treated with the phosphodiesterase inhibitor. Three readings were made for each sample and the mean value was calculated. Likewise, a subjective observation of the increase of sperm speed of all the sperm types was also performed for the samples treated with the phosphodiesterase inhibitor, with respect to the untreated samples.

[2] = tested on: infertile men with asthenozoospermia; conditions: 1200 mg daily for four months, cited from earlier work
couples with infertility = experiment: Assay of the effectiveness of intravaginal pentoxifylline in the treatment of couples with infertility; type: in vivo, human
Experimental: The most fertile days were determined by cervical mucus test, vaginal ultrasound, or ovulation test. An ovulation inducer, clomiphene or purified human gonadotrofin, irrespectively, was simultaneously administered to 6 of the couples. The gel was administered in 3 different cycles or in several days of the same cycle. A meeting was conducted with the patients between 15 and 20 hours after each administration and a microscopic examination of the endocervical exudate was performed.

[3] = microscopic examination 15 to 20 hours after transvaginal administration

| Structure (SMILES) | Increase in sperm type A + B ([1]; 100 μM in SpermRinse) | Increase in sperm speed ([1]; 100 μM) | Increase in sperm type A + B ([1]; 1 μM in SpermRinse) | Increase in sperm speed ([1]; 1 μM) | pregnancies counted after oral treatment ([2]; 15 infertile men) | pregnancy percentage after oral treatment ([2]; 15 infertile men) | sperm motility of the subjects treated ([2]; oral) | pregnancies achieved (couples with infertility; among 20 couples, transvaginal gel of Example 2) | cervical mucus characteristics (filancia, transparency, leukocytic diathesis) (couples with infertility; [3]) | type A sperm (WHO classification) counted in cervical exudate (couples with infertility; [3]) | sperm quality in terms of motility in cervical exudate (couples with infertility; microscopic examination 15 to 20 hours after transvaginal administration, asthenozoospermia and normospermia) | side effects due to the treatment (couples with infertility; transvaginal administration in women) | pregnancy percentage (effectiveness) (couples with infertility; transvaginal, three single-doses of 10 g gel of Example 2 (4% pentoxifylline), after coitus, 20 couples) |
| --- | --- | --- | --- | --- | --- | --- | --- | --- | --- | --- | --- | --- | --- |
| CC(C)C(=O)c1c(C(C)C)nn2ccccc12 [Ibudilast, 2-methyl-1-(2-(1-methyethyl)pyrazolo(1,5-a)pyridin-3-yl)-1-propanone] | ++ (the symbol ++ indicates an increase greater than 40% in the A+B sperm type count) | ++ |  |  |  |  |  |  |  |  |  |  |  |
| Cc1[nH]c(=O)c(C#N)cc1-c1ccncc1 [Milrinone, 1,6-dihydro-2-methyl-6-oxo-(3,4′-bipyridine)-5-carbonitrile] |  |  | ++ (the symbol ++ indicates an increase greater than 40% in the A+B sperm type count) | ++ |  |  |  |  |  |  |  |  |  |
| CC(=O)CCCCn1c(=O)c2c(ncn2C)n(C)c1=O [Pentoxifylline, 3,7-dihydro-3,7-dimethyl-1-(5-oxohexyl)-1H-purine-2,6-dione] |  |  | ++ (the symbol ++ indicates an increase greater than 40% in the A+B sperm type count) | ++ | 2 | 13.3% | substantial improvement in sperm motility | 4 | maintains and even improves the characteristics of cervical mucus; also recorded: improvement in the characteristics of cervical mucus | significant number of type A sperm | improvement in sperm quality in terms of motility | not observed in any case; also recorded: does not cause any type of allergy or side effect | 20% |
